One experiment has as its system A549. The experiment is described as follows: Antiproliferative activity against human A549 cells assessed as cell growth by MTT assay. The format is functional, cell-based. (Tetrazolium assays rely on reduction of a dye to a coloured formazan, in cell work by metabolically active cells.)
For another experiment, the system named is HepG2. Nature of the experiment: Antiproliferative activity against human HepG2 cells assessed as cell growth by MTT assay. The format is functional, cell-based.
For experiment [1], the target named is Epidermal growth factor receptor (Homo sapiens, UniProt P00533). The experiment is described as follows: Inhibition of recombinant EGFR (unknown origin) assessed as inhibition of autophosphorylation after 1 hr by DELFIA/Time-resolved fluorometry.
Chain of Epidermal growth factor receptor (P00533 whole entry): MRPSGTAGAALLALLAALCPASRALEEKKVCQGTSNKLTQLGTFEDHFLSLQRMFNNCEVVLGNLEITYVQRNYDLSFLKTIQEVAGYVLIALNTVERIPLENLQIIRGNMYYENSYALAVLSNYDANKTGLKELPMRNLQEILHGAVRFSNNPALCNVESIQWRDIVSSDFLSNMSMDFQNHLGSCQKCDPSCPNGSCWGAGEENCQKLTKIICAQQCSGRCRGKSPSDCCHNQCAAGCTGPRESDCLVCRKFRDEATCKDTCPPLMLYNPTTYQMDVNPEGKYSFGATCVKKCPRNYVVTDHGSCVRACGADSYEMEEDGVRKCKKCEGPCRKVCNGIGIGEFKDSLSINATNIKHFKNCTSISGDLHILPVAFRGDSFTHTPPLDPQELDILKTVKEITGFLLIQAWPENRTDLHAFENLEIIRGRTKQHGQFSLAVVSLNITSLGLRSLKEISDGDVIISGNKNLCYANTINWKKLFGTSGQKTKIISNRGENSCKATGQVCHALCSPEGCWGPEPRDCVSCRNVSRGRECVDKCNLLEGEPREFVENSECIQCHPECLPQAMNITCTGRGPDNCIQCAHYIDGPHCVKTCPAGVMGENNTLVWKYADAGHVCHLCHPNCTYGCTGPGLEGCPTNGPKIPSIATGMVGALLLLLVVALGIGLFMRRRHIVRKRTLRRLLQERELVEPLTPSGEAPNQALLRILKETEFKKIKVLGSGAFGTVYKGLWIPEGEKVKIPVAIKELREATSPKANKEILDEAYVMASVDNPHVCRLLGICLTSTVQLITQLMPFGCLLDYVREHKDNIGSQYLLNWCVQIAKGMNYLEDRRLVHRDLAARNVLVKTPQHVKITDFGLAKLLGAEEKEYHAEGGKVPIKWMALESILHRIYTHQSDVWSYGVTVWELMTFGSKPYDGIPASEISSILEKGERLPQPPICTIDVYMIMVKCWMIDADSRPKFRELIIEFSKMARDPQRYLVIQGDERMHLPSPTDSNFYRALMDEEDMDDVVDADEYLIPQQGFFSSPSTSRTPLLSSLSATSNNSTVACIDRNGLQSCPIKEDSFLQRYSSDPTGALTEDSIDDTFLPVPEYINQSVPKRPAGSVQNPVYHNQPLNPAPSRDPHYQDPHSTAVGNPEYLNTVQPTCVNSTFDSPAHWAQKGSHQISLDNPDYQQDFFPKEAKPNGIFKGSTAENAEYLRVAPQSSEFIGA

A value given as a limit tells only on which side of the number the result lay.

A word on the IC50: it is the concentration needed to halve the response being measured. Turning to `O=C1N=C(N2CCC[C@H]2C(=O)Nc2ccc3ncnc(Nc4cccc(Cl)c4)c3c2)S/C1=C/c1ccccc1F`, the values for the IC50 in the experiment on A549 and in the experiment with HepG2 were 34.5 µM and 18.2 µM, respectively.
Take `O=C1N=C(N2CCC[C@H]2C(=O)Nc2ccc3ncnc(Nc4cccc(Cl)c4)c3c2)S/C1=C/c1cccs1`: the IC50 worked out at 6.1 µM in the experiment on A549, 8.1 µM in experiment [1] and 4.12 µM with HepG2.
On the same counts, the results for `O=C1N=C(N2CCC[C@H]2C(=O)Nc2ccc3ncnc(Nc4cccc(Cl)c4)c3c2)S/C1=C/c1ccc(Br)s1` are greater than 50 µM, 31.4 µM and greater than 50 µM.
On the same counts, the results for `Cc1cccc(/C=C2/SC(N3CCC[C@H]3C(=O)Nc3ccc4ncnc(Nc5cccc(Cl)c5)c4c3)=NC2=O)n1` are 8.5 µM, 6.5 µM and 4.5 µM.
For the compound `O=C1N=C(N2CCC[C@H]2C(=O)Nc2ccc3ncnc(Nc4cccc(Cl)c4)c3c2)S/C1=C/c1cccc(Br)n1`, the IC50 with A549 is 3.1 µM; in experiment [1] it was 3.1 µM; in the experiment on HepG2, 2.7 µM.
As to `O=C1N=C(N2CCC[C@H]2C(=O)Nc2ccc3ncnc(Nc4cccc(Cl)c4)c3c2)S/C1=C/c1cccnc1Cl`, the half-maximal inhibitory concentration (IC50) in the experiment on A549 worked out at 10.8 µM; in experiment [1] it was 7.4 µM; in the experiment on HepG2 it was 6.4 µM.
On the same counts, the results for `O=C1N=C(N2CCC[C@H]2C(=O)Nc2ccc3ncnc(Nc4cccc(Cl)c4)c3c2)S/C1=C/c1cccnc1` are 10.4 µM, 9.8 µM and 8.5 µM.
With `O=C1N=C(N2CCC[C@H]2C(=O)Nc2ccc3ncnc(Nc4cccc(Cl)c4)c3c2)S/C1=C/c1ccc2ccccc2n1`, the IC50 with A549 was greater than 50 µM; in the experiment with HepG2, 22.9 µM.
For the compound `O=C1N=C(N2CCC[C@H]2C(=O)Nc2ccc3ncnc(Nc4cccc(Cl)c4)c3c2)S/C1=C/c1ccccc1Cl`, the IC50 was greater than 50 µM in the experiment with A549 and 28.1 µM in the experiment on HepG2.
Taken in the same sequence, the figures for `O=C1N=C(N2CCC[C@H]2C(=O)Nc2ccc3ncnc(Nc4cccc(Cl)c4)c3c2)S/C1=C/c1cccc(Cl)c1` were greater than 50 µM and 27.6 µM.
On the same counts, the results for `O=C1N=C(N2CCC[C@H]2C(=O)Nc2ccc3ncnc(Nc4cccc(Cl)c4)c3c2)S/C1=C/c1ccccc1Br` are greater than 50 µM and 24.3 µM.
On the same counts, the results for `O=C1N=C(N2CCC[C@H]2C(=O)Nc2ccc3ncnc(Nc4cccc(Cl)c4)c3c2)S/C1=C/c1cccc(Br)c1` are greater than 50 µM and 21.3 µM.
As to `O=C1N=C(N2CCC[C@H]2C(=O)Nc2ccc3ncnc(Nc4cccc(Cl)c4)c3c2)S/C1=C/c1ccc(Cl)cc1`, the values for the IC50 (in the experiment with A549; in experiment [1]; in the experiment with HepG2) were 18.7 µM, 7.6 µM and 10.5 µM, respectively.
Consider `COc1ccccc1/C=C1/SC(N2CCC[C@H]2C(=O)Nc2ccc3ncnc(Nc4cccc(Cl)c4)c3c2)=NC1=O`, for which the IC50 is greater than 50 µM in the experiment with A549 and 22.1 µM in the experiment on HepG2.
On the same counts, the results for `O=C1N=C(N2CCC[C@H]2C(=O)Nc2ccc3ncnc(Nc4cccc(Cl)c4)c3c2)S/C1=C/c1ccccc1[N+](=O)[O-]` are greater than 50 µM and 32.5 µM.
On the same counts, the results for `COc1ccc(/C=C2/SC(N3CCC[C@H]3C(=O)Nc3ccc4ncnc(Nc5cccc(Cl)c5)c4c3)=NC2=O)cc1` are 31.7 µM and 19 µM.
Consider `O=C1N=C(N2CCC[C@H]2C(=O)Nc2ccc3ncnc(Nc4cccc(Cl)c4)c3c2)S/C1=C/c1ccc(-c2ccccc2)cc1`, for which the IC50 was 24.2 µM in the experiment with A549, 13.2 µM in experiment [1] and 15.4 µM in the experiment on HepG2.

The record behind these values is ChEMBL document CHEMBL3585298, “Combination of 4-anilinoquinazoline and rhodanine as novel epidermal growth factor receptor tyrosine kinase inhibitors” (Bioorg Med Chem, 2015).
